In assay [1] the test system is Cryptococcus neoformans. Nature of the assay: Antimicrobial activity against Cryptococcus neoformans ATCC 32719 incubated for 24 hrs by two fold serial dilution method. In kind it is functional.
For assay [2], the system named is Candida albicans. The experiment in a line: Antimicrobial activity against micafungin-resistant Candida albicans ATCC 76615R incubated for 24 hrs by two fold serial dilution method. It counts as functional.
For assay [3], the system named is Aspergillus flavus. Nature of the assay: Antimicrobial activity against Fluconazole-resistant Aspergillus flavus ATCC 16870R incubated for 24 hrs by two fold serial dilution method. In kind it is functional.
Assay [4] deals with Aspergillus fumigatus. Nature of the assay: Antimicrobial activity against Fluconazole-resistant Aspergillus fumigatus GIMCC 3.19R incubated for 24 hrs by two fold serial dilution method. In kind it is functional.
In assay [5] the test system is Aspergillus fumigatus. Nature of the assay: Antimicrobial activity against Aspergillus fumigatus GIMCC 3.19 incubated for 24 hrs by two fold serial dilution method. It counts as functional.
For assay [6], the system named is Aspergillus fumigatus. The experiment in a line: Antimicrobial activity against Aspergillus fumigatus GIMCC 3.19 assessed as inhibition of cell wall synthesis in presence of sorbitol. It counts as functional.
Assay [7] relates to Candida albicans. Nature of the assay: Antimicrobial activity against fluconazole-resistant Candida albicans ATCC 76615R incubated for 24 hrs by two fold serial dilution method. In kind it is functional.
The subject of assay [8] is Aspergillus flavus. Nature of the assay: Antimicrobial activity against Aspergillus flavus ATCC 16870 incubated for 24 hrs by two fold serial dilution method. It counts as functional.
Another assay has as its system Candida tropicalis. Nature of the assay: Inhibition of Candida tropicalis ATCC 750 chitin synthase using UDP-GlcNAc as substrate at 300 ug/ml by TMB based microplate analyzer relative to control. The conditions noted are these: dose 300.0 µg/ml.
In assay [9] the test system is Cryptococcus neoformans. Nature of the assay: Antimicrobial activity against Cryptococcus neoformans ATCC 32719 assessed as inhibition of cell wall synthesis in presence of sorbitol. It counts as functional.
Assay [10] relates to Cryptococcus neoformans. The experiment in a line: Antimicrobial activity against Fluconazole-resistant Cryptococcus neoformans ATCC 32719R incubated for 24 hrs by two fold serial dilution method. In kind it is functional.
The nature of assay [11]: Inhibition of Candida tropicalis ATCC 750 chitin synthase using UDP-GlcNAc as substrate by TMB based microplate analyzer.
Assay [12] concerns Candida albicans. The experiment in a line: Antimicrobial activity against Candida albicans ATCC 76615 assessed as inhibition of cell wall synthesis in presence of sorbitol. In kind it is functional.
For assay [13], the system named is Candida albicans. Nature of the assay: Antimicrobial activity against Candida albicans ATCC 76615 incubated for 24 hrs by two fold serial dilution method. In kind it is functional.
In assay [14] the test system is Aspergillus flavus. The experiment in a line: Antimicrobial activity against Aspergillus flavus ATCC 16870 assessed as inhibition of cell wall synthesis in presence of sorbitol. In kind it is functional.

Values after ≈ are worked out from the molar mass of the structure shown. Numbered stars: 1 amine (or outer) side, 2 acyl side, 3 side chain; on linkers, the order of the positions; unused ones are H or OH. Bridge positions count the residues as written; N and C are the ends. Square brackets hold non-standard residues; d marks the D form. Peptide text beside a SMILES is read from it. * marks the point of attachment. hTyr(3S-OH,4S-OH,3'-OSO3H) = N[C@H](C(=O)O)[C@H](O)[C@@H](O)c1ccc(O)c(OS(=O)(=O)O)c1; Orn(4R-OH,5R-OH) = O=C([C@H](C[C@@H](O)[C@@H](O)N[*:3])N[*:1])[*:2]; Pro(3S-OH,4S-Me) = C[C@H]1CN[C@H](C(=O)O)[C@H]1O; X1 = CCCCCOc1ccc(-c2cc(-c3ccc(C(=O)*)cc3)no2)cc1; Gln(3R-OH) = NC(=O)C[C@@H](O)[C@H](N)C(=O)O; Hyp = O=C(O)[C@@H]1C[C@@H](O)CN1

In ChEMBL document CHEMBL5634100, “Novel spiro[pyrrolidine-2,3'-quinoline]-2'-one derivatives containing piperazine fragment as potential chitin synthase inhibitors and antifungal agents: Design, synthesis and biological evaluation” (Eur J Med Chem, 2023) one finds MIC, inhibition and IC50 data, which are given here for eight compounds.

Take `O=C(c1cc(Cl)ccc1Cl)N1CCN(CC(=O)N2CCCC23Cc2ccccc2NC3=O)CC1` (stereo unspecified): the MIC (in general, the least concentration at which growth counts as inhibited) in the assay with Cryptococcus neoformans [1] is 8 µg/mL (≈ 16 µM); in the assay on Candida albicans [2], 32 µg/mL (≈ 63.8 µM); against Aspergillus flavus [3], 64 µg/mL (≈ 128 µM); in the assay on Aspergillus fumigatus [4], 64 µg/mL (≈ 128 µM); with Aspergillus fumigatus [5], 8 µg/mL (≈ 16 µM); in the assay with Aspergillus fumigatus [6], 64 µg/mL. Besides, the MIC with Candida albicans [7] was 64 µg/mL (≈ 128 µM); against Aspergillus flavus [8] it was 8 µg/mL (≈ 16 µM); in the assay with Cryptococcus neoformans [9], 128 µg/mL; against Cryptococcus neoformans [10], 64 µg/mL (≈ 128 µM); in the assay on Candida albicans [12], 64 µg/mL; in the assay with Candida albicans [13], 4 µg/mL (≈ 7.98 µM). Also, the MIC in the assay on Aspergillus flavus [14] stood at 32 µg/mL. The inhibition (usually the percentage by which the read-out fell short of the control) in the assay on Candida tropicalis is 67.6%. In addition, the IC50 (commonly the concentration that gives 50% inhibition) in assay [11] worked out at 180 µM.

As for `O=C(c1ccccc1I)N1CCN(CC(=O)N2CCCC23Cc2ccccc2NC3=O)CC1` (stereo unspecified), the MIC in the assay on Cryptococcus neoformans [1] was determined as 32 µg/mL (≈ 57.3 µM); with Aspergillus fumigatus [5], 16 µg/mL (≈ 28.7 µM); against Aspergillus flavus [8], 16 µg/mL (≈ 28.7 µM); in the assay with Candida albicans [13], 8 µg/mL (≈ 14.3 µM). This compound also yielded an inhibition in the assay with Candida tropicalis of 54.2%.

On to `NC(=O)OC[C@H](O)[C@@H](O)[C@H](N)C(=O)N[C@H](C(=O)O)[C@H]1O[C@@H](n2cc(CO)c(=O)[nH]c2=O)[C@H](O)[C@@H]1O` [POLYOXIN B], for which the MIC in the assay on Cryptococcus neoformans [1] stood at 16 µg/mL (≈ 31.5 µM); in the assay on Aspergillus fumigatus [5], 8 µg/mL (≈ 15.8 µM); with Aspergillus fumigatus [6], 64 µg/mL; against Aspergillus flavus [8] it was 8 µg/mL (≈ 15.8 µM); in the assay on Cryptococcus neoformans [9] it was 128 µg/mL; in the assay on Candida albicans [12] it was 64 µg/mL. Besides, the MIC against Candida albicans [13] turned out to be 8 µg/mL (≈ 15.8 µM); in the assay on Aspergillus flavus [14], 64 µg/mL. The same compound displayed an inhibition with Candida tropicalis of 86.1%. The same compound registered an IC50 in assay [11] of 90 µM.

As for `O=C(c1ccccc1)N1CCN(CC(=O)N2CCCC23Cc2ccccc2NC3=O)CC1` (stereo unspecified), the MIC in the assay on Cryptococcus neoformans [1] is 64 µg/mL (≈ 148 µM); in the assay on Aspergillus fumigatus [5], 32 µg/mL (≈ 74 µM); in the assay on Aspergillus flavus [8], 32 µg/mL (≈ 74 µM); in the assay on Candida albicans [13], 16 µg/mL (≈ 37 µM). This compound gave an inhibition in the assay with Candida tropicalis of 47%.

As to `Cc1ccc(C(=O)N2CCN(CC(=O)N3CCCC34Cc3ccccc3NC4=O)CC2)cc1` (stereo unspecified), the MIC in the assay with Cryptococcus neoformans [1] came to 64 µg/mL (≈ 143 µM); with Aspergillus fumigatus [5], 32 µg/mL (≈ 71.7 µM); in the assay with Aspergillus flavus [8], 16 µg/mL (≈ 35.8 µM); in the assay on Candida albicans [13], 16 µg/mL (≈ 35.8 µM). In the assay on Candida tropicalis, this compound registered an inhibition of 52.3%.

For the compound `O=C(c1ccccc1Cl)N1CCN(CC(=O)N2CCCC23Cc2ccccc2NC3=O)CC1` (stereo unspecified), the MIC in the assay on Cryptococcus neoformans [1] is 32 µg/mL (≈ 68.5 µM); in the assay on Aspergillus fumigatus [5], 16 µg/mL (≈ 34.3 µM); in the assay on Aspergillus flavus [8] it was 16 µg/mL (≈ 34.3 µM); in the assay on Candida albicans [13], 16 µg/mL (≈ 34.3 µM). In the assay on Candida tropicalis, this compound showed an inhibition of 61.4%.

Regarding `Cc1cccc(C(=O)N2CCN(CC(=O)N3CCCC34Cc3ccccc3NC4=O)CC2)c1` (stereo unspecified), the MIC in the assay on Cryptococcus neoformans [1] worked out at 64 µg/mL (≈ 143 µM); in the assay on Aspergillus fumigatus [5], 32 µg/mL (≈ 71.7 µM); in the assay with Aspergillus flavus [8], 32 µg/mL (≈ 71.7 µM); with Candida albicans [13], 16 µg/mL (≈ 35.8 µM). In the assay with Candida tropicalis, this compound registered an inhibition of 49.4%.

For the compound `CCCCCOc1ccc(-c2cc(-c3ccc(C(=O)N[C@H]4C[C@@H](O)[C@@H](O)NC(=O)[C@@H]5[C@@H](O)[C@@H](C)CN5C(=O)[C@H]([C@H](O)CC(N)=O)NC(=O)[C@H]([C@H](O)[C@@H](O)c5ccc(O)c(OS(=O)(=O)O)c5)NC(=O)[C@@H]5C[C@@H](O)CN5C(=O)[C@H]([C@@H](C)O)NC4=O)cc3)no2)cc1` [MICAFUNGIN] (X1-[Orn(4R-OH,5R-OH)]T[Hyp][hTyr(3S-OH,4S-OH,3'-OSO3H)][Gln(3R-OH)][Pro(3S-OH,4S-Me)]; lactam 1-C), the minimal inhibitory concentration (MIC) against Candida albicans [2] was greater than 256 µg/mL.
